Source: patent US10189863B2, “5,6-dihydro-4H-benzo[b]thieno-[2,3-d]azepine derivatives” (PULMOCIDE LIMITED, priority 2014, dated 2019)

Experiments:
Type in all cases: in vivo, Sigmodon hispidus cotton rats
hRSV/A/Long = assay: RSV infection in cotton rats: virus titre in lung (plaque assay); conditions: intranasal
Procedure: (§1) RSV Infection in Cotton Rats
(§2) Male Sigmodon hispidus cotton rats between 6 and 8 weeks of age were infected with hRSV/A/Long (ATCC, Manassas, Va.; 10^5 pfu) in a volume of 0.1 mL of sucrose stabilizing media. Test compounds were dissolved in 100% DMSO (at 3.3, 10, 33 and 100 mg/mL), then diluted at 1:10 in isotonic saline to achieve 10% DMSO in all treatments. Formulations were then sonicated to produce suspensions. The resulting suspensions were administered intranasally (50 μL) by pipette 4 hr before infection (on day 0), and then on days 1, 2 and 3 post infection. Four days after RSV challenge, the animals were euthanised and the lungs were removed. The left lobe was used for viral titration via plaque assay and the lingular lobe for RSV/A/Long NS-1 qRT-PCR and cytokine qRT-PCR.
The supernatant of lung homogenates were diluted 1:10 and 1:100 in Eagle (E)-MEM. Confluent HEp2 monolayers in 24-well plates were infected in duplicate (50 μL of sample per well) starting with undiluted (neat) samples followed by diluted homogenates. After incubation for 1 hr (37° C./5% CO2) wells were overlaid with 0.75% methylcellulose medium and plates replaced in the 37° C. incubator. After incubation (for 4 days), the overlay was removed, the cells fixed with 0.1% crystal violet stain (for 1 hr) and then rinsed and air-dried. Plaques were counted and viral titers were expressed as plaque forming units per gram (pfu·g^−1) of tissue.

[1] = test system: RSV NS-1 gene transcripts; assay: RSV infection in cotton rats: RSV NS-1 gene transcripts in lung (qRT-PCR); conditions: for RSV NS1 gene transcript % inhibition / RSV NS1 gene transcript (/β-actin), Median: intranasal
Procedure: as §1, §2
Total RNA was also extracted from homogenized lung tissue (RNeasy purification kit; Qiagen) and a sample (1 μg) was used to prepare cDNA using QuantiTect Reverse Transcription Kit (Qiagen). For real-time PCR reactions (RSV NS-1 and RANTES genes) the QuantiFast SYBR® Green PCR Kit (Qiagen) was used in a final volume of 25 μL, with final primer concentrations of 0.5 μM. Amplifications were performed on a Bio-Rad iCycler for 1 cycle of 95° C. for 3 min, followed by 40 cycles of 95° C. for 10 sec, 60° C. for 10 sec, and 72° C. for 15 sec. Baseline cycles and cycle threshold (Ct) were calculated by the iQ5 software in the PCR Base Line Subtracted Curve Fit mode. The standard curves were developed using serially diluted cDNA sample most enriched in the transcript of interest (e.g., lungs from day 4 post-primary RSV infection). The Ct values were plotted against log10 cDNA dilution factor. These curves were used to convert the Ct values obtained for different samples to relative expression units which were then normalized to the level of β-actin mRNA (“housekeeping gene”) expressed in the corresponding sample. The mRNA levels were expressed as the geometric mean±SEM for all animals in a group.

RANTES gene expression = assay: RSV infection in cotton rats: RANTES gene transcripts in lung (qRT-PCR)
Procedure: as §1, §2
Total RNA was also extracted from homogenized lung tissue (RNeasy purification kit; Qiagen) and a sample (1 μg) was used to prepare cDNA using QuantiTect Reverse Transcription Kit (Qiagen). For real-time PCR reactions (RSV NS-1 and RANTES genes) the QuantiFast SYBR® Green PCR Kit (Qiagen) was used in a final volume of 25 μL, with final primer concentrations of 0.5 μM. […] Baseline cycles and cycle threshold (Ct) were calculated by the iQ5 software in the PCR Base Line Subtracted Curve Fit mode. […] The mRNA levels were expressed as the geometric mean±SEM for all animals in a group.

[2] = Drug Conc 10 mg/mL, day 4, LOQ 2.3

Cc1cnc(N2CC3(CCOCC3)C2)c(C(=O)Nc2ccc(C(=O)N3CCc4cc(C(=O)Nc5c(C)cccc5F)sc4-c4ccccc43)cc2)c1 [Example 5, N-(2-Fluoro-6-methylphenyl)-6-(4-(5-methyl-2-(7-oxa-2-azaspiro[3.5]nonan-2-yl)nicotinamido)benzoyl)-5,6-dihydro-4H-benzo[b]thieno[2,3-d]azepine-2-carboxamide]
Virus titre in lung, Geometric mean (hRSV/A/Long; Drug Conc 0.33 mg/mL, day 4): 4.7 log, PFU/lung
Virus titre in lung, Median (hRSV/A/Long; Drug Conc 0.33 mg/mL, day 4): 4.7 log, PFU/lung
Virus titre in lung, Median (hRSV/A/Long; Drug Conc 1.0 mg/mL, day 4): 4.5 log, PFU/lung
Virus titre in lung, Median (hRSV/A/Long; Drug Conc 3.3 mg/mL, day 4, LOQ 2.3): <2.3^2 log, PFU/lung
Virus titre in lung, Geometric mean (hRSV/A/Long; [2]): <2.3^2 log, PFU/lung
Virus titre in lung, Median (hRSV/A/Long; [2]): <2.3^2 log, PFU/lung
Effect on RSV NS-1 gene transcripts (in words) [1]: dose-dependent inhibition
RSV NS1 gene transcript % inhibition ([1]; Drug Conc 0.33 mg/mL): 55%
RSV NS1 gene transcript (/β-actin), Median ([1]; Drug Conc 0.33 mg/mL): 2.0 /β-actin
RSV NS1 gene transcript % inhibition ([1]; Drug Conc 1.0 mg/mL): 64%
RSV NS1 gene transcript (/β-actin), Median ([1]; Drug Conc 1.0 mg/mL): 1.6 /β-actin
RSV NS1 gene transcript % inhibition ([1]; Drug Conc 3.3 mg/mL): 77%
RSV NS1 gene transcript (/β-actin), Median ([1]; Drug Conc 3.3 mg/mL): 1.0 /β-actin
RSV NS1 gene transcript % inhibition ([1]; Drug Conc 10 mg/mL): 77%
RSV NS1 gene transcript (/β-actin), Median ([1]; Drug Conc 10 mg/mL): 1.0 /β-actin
Effect on RANTES transcripts in lung (in words) (RANTES gene expression): dose-dependent inhibition
